Laboratory results: ChEMBL document CHEMBL1201862, “PubChem BioAssay data set” (2004)
Counter-ions that a name gives are not always drawn. Active and inactive are the calls of the source.

Key:
[1] = tested on: HEK293; assay: optical interference in Abeta FP readout, dose response, artefact control for IDE activator project, biochemical, fluorescence polarization (AID 588442); format: functional, cell-based; settings: Homo sapiens
[2] = tested on: BJ; assay: cells; format: functional, cell-based; settings: Homo sapiens
[3] = tested on: HeLa; assay: HeLa cell cytotoxicity, dose response, cytotoxicity control, 24 h, cherry-picked samples (AID 504726); format: functional, cell-based; settings: Homo sapiens;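 further: potency for cytotoxicity as loss of luminescence signal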
[4] = tested on: BJ; assay: cytotoxicity toward BJ-TERT-LT-ST fibroblasts, dose response, cell-based, RAS-independent, luminescence (AID 1935); format: functional; settings: Homo sapiens;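 further: BJ fibroblasts immortalized with TERT plus LT and ST oncogenes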
[5] = target: T1, Insulin-degrading enzyme (Homo sapiens, UniProt P14735); assay: activators of endogenous IDE in HEK cells, dose response, cell-based, fluorescence polarization (AID 588439); format: functional
T1 sequence (P14735 whole entry): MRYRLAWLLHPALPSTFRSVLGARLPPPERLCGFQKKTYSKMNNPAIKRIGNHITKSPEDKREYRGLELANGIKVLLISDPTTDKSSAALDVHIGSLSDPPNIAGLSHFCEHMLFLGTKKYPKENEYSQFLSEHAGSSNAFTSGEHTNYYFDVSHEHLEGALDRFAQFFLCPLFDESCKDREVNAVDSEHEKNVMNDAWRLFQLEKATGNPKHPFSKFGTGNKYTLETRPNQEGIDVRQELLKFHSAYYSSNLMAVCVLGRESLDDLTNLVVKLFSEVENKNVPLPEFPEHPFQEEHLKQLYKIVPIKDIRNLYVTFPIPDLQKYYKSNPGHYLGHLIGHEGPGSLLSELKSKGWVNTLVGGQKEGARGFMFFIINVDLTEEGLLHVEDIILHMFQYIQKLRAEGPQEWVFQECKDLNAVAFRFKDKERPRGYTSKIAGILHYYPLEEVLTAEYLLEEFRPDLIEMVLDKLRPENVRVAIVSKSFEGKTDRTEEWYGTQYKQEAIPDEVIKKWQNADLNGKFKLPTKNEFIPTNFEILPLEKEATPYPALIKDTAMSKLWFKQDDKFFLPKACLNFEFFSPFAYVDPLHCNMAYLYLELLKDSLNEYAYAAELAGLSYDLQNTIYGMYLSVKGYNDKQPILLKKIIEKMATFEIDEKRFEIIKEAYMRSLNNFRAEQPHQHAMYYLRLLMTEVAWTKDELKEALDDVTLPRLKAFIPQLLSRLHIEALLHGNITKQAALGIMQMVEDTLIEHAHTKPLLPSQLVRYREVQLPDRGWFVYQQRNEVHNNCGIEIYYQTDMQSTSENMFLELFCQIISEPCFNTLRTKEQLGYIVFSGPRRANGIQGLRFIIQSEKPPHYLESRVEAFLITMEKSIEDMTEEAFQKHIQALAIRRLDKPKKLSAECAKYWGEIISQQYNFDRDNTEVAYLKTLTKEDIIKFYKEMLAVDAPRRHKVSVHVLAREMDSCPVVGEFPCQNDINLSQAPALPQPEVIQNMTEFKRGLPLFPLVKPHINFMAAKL

[6] = HCT116 cell viability decrease, GSK3B pretreatment – CellTiter-Glo, IC50, dose response (AID 1117339); format: functional; settings: HCT-116
[7] = tested on: P388; assay: cells; format: functional; settings: Mus musculus
[8] = tested on: SN12K1; assay: cells; format: functional; settings: Homo sapiens
[9] = cytotoxicity toward DRD oncogenic fibroblasts, dose response, cell-based, non-viral oncogenic, luminescence (AID 1934); format: functional; settings: Homo sapiens
[10] = tested on: HEK293; assay: HEK cell cytotoxicity by LDH release, dose response, cytotoxicity control for IDE activator project, fluorescence, HEK cells (AID 588440); format: functional, cell-based; settings: Homo sapiens;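 further: cytotoxicity by LDH release measuring loss of membrane integrity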
[11] = CellTiter-Glo luminescent dose response of DLD-1 viability loss (AID 1117352); format: functional
[12] = target: T1, Insulin-degrading enzyme; assay: activators of recombinant IDE enzyme, dose response, counter-screen for IDE activator project, biochemical, fluorescence polarization (AID 588681)
[13] = RKO cell viability reduction, dose response, CellTiter-Glo luminescence (AID 1117322); format: functional
[14] = tested on: P388/ADR; assay: cells; format: functional; settings: Mus musculus
[15] = HeLa 2N DNA content increase, dose response, cell-based, IC50 (AID 1117349); format: functional
[16] = target: ORF 73 (Human herpesvirus 8, UniProt O40947); assay: inhibitors of C-LANA binding to LBS DNA, dose response, biochemical, fluorescence polarization, cherry-picked samples (AID 504725); parameters: species or system Human gammaherpesvirus 8;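 further: fluorescence polarization of a labeled DNA duplex reporting LANA DNA binding; potency is for inhibitors that block LANA binding to the DNA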
ORF 73, sequence (O40947 whole entry): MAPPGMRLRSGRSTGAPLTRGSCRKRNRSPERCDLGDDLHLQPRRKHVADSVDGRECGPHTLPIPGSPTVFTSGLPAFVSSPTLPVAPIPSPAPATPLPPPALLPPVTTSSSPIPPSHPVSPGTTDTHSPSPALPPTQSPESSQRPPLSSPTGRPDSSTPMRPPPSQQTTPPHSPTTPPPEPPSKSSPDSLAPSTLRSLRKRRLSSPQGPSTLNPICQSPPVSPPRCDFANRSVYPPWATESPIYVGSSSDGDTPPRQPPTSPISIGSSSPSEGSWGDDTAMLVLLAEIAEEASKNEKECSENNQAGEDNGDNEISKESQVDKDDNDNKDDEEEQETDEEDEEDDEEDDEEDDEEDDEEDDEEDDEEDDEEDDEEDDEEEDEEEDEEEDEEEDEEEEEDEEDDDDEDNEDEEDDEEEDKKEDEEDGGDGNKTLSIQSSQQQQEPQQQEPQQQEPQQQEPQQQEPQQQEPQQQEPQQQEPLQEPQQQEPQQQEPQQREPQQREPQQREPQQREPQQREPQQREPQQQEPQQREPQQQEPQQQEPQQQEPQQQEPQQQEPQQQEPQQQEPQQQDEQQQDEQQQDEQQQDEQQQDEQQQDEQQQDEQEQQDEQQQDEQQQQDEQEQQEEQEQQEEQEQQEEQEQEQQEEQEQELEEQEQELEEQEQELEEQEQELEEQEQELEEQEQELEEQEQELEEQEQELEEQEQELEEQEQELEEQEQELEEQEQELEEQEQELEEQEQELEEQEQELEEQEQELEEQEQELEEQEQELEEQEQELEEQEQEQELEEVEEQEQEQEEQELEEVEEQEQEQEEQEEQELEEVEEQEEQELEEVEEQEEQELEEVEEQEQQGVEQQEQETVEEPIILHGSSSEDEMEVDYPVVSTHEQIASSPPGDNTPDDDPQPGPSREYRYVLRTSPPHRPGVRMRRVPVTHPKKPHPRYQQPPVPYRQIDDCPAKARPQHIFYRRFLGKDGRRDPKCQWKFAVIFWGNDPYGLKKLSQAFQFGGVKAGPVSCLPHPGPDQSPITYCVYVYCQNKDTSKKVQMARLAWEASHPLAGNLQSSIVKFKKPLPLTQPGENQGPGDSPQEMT

[17] = target: Keap1/Nrf2 (Homo sapiens, UniProt Q14145); assay: Keap1-Nrf2 protein-protein interaction inhibitors, dose response, biochemical, fluorescence polarization, cherry-picked samples (AID 588683)
Keap1/Nrf2, sequence (Q16236 whole entry): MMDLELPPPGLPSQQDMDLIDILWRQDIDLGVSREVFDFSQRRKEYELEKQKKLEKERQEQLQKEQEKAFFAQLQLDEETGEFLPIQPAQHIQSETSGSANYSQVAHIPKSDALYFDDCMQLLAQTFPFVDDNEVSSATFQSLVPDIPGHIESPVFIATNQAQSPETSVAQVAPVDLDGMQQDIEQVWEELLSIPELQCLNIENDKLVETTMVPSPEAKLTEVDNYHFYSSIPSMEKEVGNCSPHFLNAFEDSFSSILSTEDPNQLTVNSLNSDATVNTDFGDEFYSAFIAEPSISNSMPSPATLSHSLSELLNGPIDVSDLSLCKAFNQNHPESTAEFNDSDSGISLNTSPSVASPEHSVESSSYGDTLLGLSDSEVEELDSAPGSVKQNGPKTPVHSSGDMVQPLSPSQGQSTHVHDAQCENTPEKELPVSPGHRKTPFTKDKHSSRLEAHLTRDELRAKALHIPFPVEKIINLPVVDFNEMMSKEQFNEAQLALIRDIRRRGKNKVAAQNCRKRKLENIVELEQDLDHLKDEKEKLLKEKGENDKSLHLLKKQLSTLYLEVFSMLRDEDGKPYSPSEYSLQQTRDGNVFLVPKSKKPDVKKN
Keap1/Nrf2, sequence (Q14145 whole entry): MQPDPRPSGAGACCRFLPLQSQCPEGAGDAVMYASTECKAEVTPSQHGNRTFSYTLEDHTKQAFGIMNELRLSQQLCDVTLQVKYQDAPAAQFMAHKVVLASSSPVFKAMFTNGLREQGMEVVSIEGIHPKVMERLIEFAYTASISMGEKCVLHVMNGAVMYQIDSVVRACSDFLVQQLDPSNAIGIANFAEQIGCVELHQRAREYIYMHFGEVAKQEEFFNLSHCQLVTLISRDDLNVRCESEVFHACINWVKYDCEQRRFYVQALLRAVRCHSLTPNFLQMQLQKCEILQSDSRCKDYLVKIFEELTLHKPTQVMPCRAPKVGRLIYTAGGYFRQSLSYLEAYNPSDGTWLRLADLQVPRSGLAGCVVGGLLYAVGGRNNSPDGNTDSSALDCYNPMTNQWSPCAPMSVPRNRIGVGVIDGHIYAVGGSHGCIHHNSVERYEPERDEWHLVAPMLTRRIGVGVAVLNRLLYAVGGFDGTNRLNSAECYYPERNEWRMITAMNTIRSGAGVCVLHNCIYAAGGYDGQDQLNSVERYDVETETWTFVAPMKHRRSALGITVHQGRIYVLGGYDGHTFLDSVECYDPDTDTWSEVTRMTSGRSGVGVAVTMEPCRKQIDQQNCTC

[18] = cytotoxicity in HEK-293T cells, dose response, cytotoxicity control for TCR NF-kB inhibitor project, luminescence, T-cell screen hits (AID 489026); format: functional, cell-based;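 further: cells exposed to compound about 14 hours before the viability readout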
[19] = tested on: BJ; assay: cytotoxicity toward BJ-TERT fibroblasts, dose response, cell-based, RAS-independent, luminescence (AID 1933); format: functional; settings: Homo sapiens
[20] = target: Paired box protein Pax-8 (Homo sapiens, UniProt Q06710); assay: inhibitors of PAX8-driven TPO luciferase reporter, dose response, RMG-I cells, cherry-pick (AID 687027); format: functional, cell-based;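 further: luciferase reporter driven by Pax8 target thyroperoxidase promoter measured by SteadyGlo luminescence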
Paired box protein Pax-8, sequence (Q06710 whole entry): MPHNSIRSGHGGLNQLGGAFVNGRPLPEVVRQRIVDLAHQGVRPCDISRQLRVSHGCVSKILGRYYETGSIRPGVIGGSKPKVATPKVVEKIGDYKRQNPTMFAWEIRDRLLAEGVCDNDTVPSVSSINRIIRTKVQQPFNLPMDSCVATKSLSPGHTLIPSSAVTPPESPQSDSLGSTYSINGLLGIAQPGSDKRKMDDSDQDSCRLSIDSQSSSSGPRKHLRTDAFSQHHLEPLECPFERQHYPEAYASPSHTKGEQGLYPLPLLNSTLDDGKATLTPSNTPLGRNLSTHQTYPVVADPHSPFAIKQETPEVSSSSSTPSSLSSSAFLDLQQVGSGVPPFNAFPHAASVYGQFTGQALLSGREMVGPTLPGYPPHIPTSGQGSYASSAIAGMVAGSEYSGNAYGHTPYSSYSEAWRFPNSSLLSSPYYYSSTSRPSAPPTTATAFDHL

[21] = tested on: BJ; assay: cytotoxicity toward Ras-transformed BJeLR fibroblasts, dose response, cell-based, alamar blue fluorescence, cherrypicked samples (AID 2631); format: functional; settings: Homo sapiens;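 further: confirmatory dose-response assay in RAS-dependent BJ fibroblasts engineered with TERT, LT and ST, with cytotoxicity read by fluorescence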
[22] = target: UDP-galactopyranose mutase (Mycobacterium tuberculosis, UniProt P9WIQ1); assay: Inhibitors of Mycobacterium tuberculosis UDP-galactopyranose mutase (UGM) enzyme Measured in Biochemical System Using Plate Reader - 2105-02_Inhibitor_Dose_CherryPick_Activity. [Related pubchem assays (depositor defined):AID504439]
UDP-galactopyranose mutase, sequence (P9WIQ1 whole entry): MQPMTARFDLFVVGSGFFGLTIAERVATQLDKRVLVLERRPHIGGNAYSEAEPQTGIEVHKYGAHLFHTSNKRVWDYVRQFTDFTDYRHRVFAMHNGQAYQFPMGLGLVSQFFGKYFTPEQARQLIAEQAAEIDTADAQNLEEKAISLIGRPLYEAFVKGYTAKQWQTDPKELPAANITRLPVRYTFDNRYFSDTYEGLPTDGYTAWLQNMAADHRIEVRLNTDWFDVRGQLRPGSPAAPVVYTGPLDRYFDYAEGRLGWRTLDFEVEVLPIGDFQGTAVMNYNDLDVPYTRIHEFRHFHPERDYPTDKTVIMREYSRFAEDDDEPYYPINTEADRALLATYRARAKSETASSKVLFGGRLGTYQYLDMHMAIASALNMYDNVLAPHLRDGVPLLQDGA

[23] = Concentration-dependent survival of SW480 colon cancer line, luminescence detection with CellTiter-Glo, half-maximal inhibitory concentration (AID 1117338); format: functional
[24] = SNU-C1 cell viability reduction, dose response, CellTiter-Glo luminescence (AID 1117323); format: functional, cell-based
[25] = cytotoxicity toward HT-29 cells – cell-based, CellTiter-Glo luminescence, IC50, dose response (AID 1117330); format: functional
[26] = cytotoxicity toward HCT116 cells – cell-based, CellTiter-Glo luminescence, IC50, dose response (AID 1117332); format: functional; settings: HCT-116
[27] = HeLa 4N DNA content increase, dose response, cell-based, IC50 (AID 1117351); format: functional

In the case of `CC[C@@]1(O)C(=O)OCc2c1cc1n(c2=O)Cc2cc3c(CN(C)C)c(O)ccc3nc2-1` [TOPOTECAN HYDROCHLORIDE], the EC50 [1] was > 54.7 µM (inactive), the EC50 [2] was 246 nM (active) and the AC50 [3] was 17.1 µM (active). The EC50 [4] was 159 nM (active), the EC50 [5] was > 54.7 µM (inactive) and the IC50 [6] was 1.44 nM (active). The GI50 [7] was 29 nM (active), the GI50 [8] was 26.7 nM (active) and the EC50 [9] was 549 nM (active). The IC50 [10] was > 89.2 µM (inactive), the IC50 [11] was 177 nM (active) and the EC50 [12] was > 54.7 µM (inactive). The IC50 [13] was 34.2 nM (active), the GI50 [14] was 136 nM (active) and the IC50 [15] was 13.6 nM (active). For the same compound, the AC50 [16] was 2.15 µM (active), the AC50 [17] was 3.7 µM (active) and the IC50 [18] was > 80 µM (inactive). The EC50 [19] was 11.3 µM (active), the AC50 [20] was < 260 nM (active) and the EC50 [21] was 19.8 nM (active). The AC50 [22] was 6.86 µM (active), the IC50 [23] was 233 nM (active) and the IC50 [24] was 301 nM (active). The IC50 [25] was 24.6 nM (active), the IC50 [26] was 34.1 nM (active) and the IC50 [27] was > 10 µM (inactive).
